The values that follow come from patent US20140329863A1 (priority 2011, published 2014).

Data set [1] can be described thus: Hepatic microsomal stability, human. Conditions: for half-life at 1 μM: pH 7.4.
Data set [2] is described as follows: Hepatic microsome stability, human. It is filed as in vitro ADME. How it is done: (§1) Hepatic microsomal stability assays were performed in two stages. In the first set of experiments, aliquots of the DMSO solute stocks were diluted into ACN and then into assay buffer (PBS, pH 7.4, ±0.05% PS80). Final experimental solute concentrations were 1 μM (0.6% ACN, 0.01% DMSO). Commercially available mouse, rat, or human hepatic microsomes (˜0.5 mg/ml final concentration), and NADPH (1 mM) or PBS were added. The resulting mixture was incubated at 37° C., and aliquots removed at 0, 1, 10, 30 and 60 min, then quenched with ACN containing 2 μM carbamazepine (internal standard). […] Duplicate incubations were run for each time-point. The percentage of solute remaining at the end of the incubation was used to determine solute half-life.
(§2) These were diluted 500-fold into 1 mL of microsomal incubation mixture to yield a final concentration of 1 μM. The incubation mixture was composed of 100 mM phosphate buffer, pH 7.4, and NADPH regenerating system (BD Biosciences NADPH Regenerating System Solutions A & B). This mixture was preincubated at 37° C. for 5 min in an Eppendorf Thermo mixer, and the reaction initiated by addition of 0.5 mg (25 μl of a 20 mg/mL solution) of liver microsomes. Aliquots (100 μl) were withdrawn at 0, 5, 15, 30, and 60 min, and added to 100 μl ACN containing internal standard. […] The percentage of solute remaining at the end of the incubation was used to determine species-specific values of scaled intrinsic clearance, hepatic clearance, and predicted hepatic extraction based upon the calculations below {Obach, 1999 #9097}.
(§3) for which mg microsomal protein/gm liver was 45 for all species, and gm liver/kg body weight were 32 for dog, 88 for mouse, 40 for rat and 25 for human.
(§4) Clh=(Q*Clint,scaled)/(Q+Clint,scaled)
(§5) for which Q was hepatic blood flow; values of 90 ml/min/kg for mouse, 66 ml/min/kg for rat, and 21 ml/min/kg for human were used.
(§6) for which ER estimates the amount of compound cleared during a single pass through the liver (Low ER<0.3, moderate ER 0.3-0.7, high ER>0.7).

Data set [3] in a line: Hepatic microsomal stability, rat. Conditions: for half-life at 1 μM: Sprague-Dawley, pH 7.4.
Another data set has as its system ScN2a-c13 cells. Description: cells. The class given is cell-based. Conditions: Mus musculus; N=3; read-out: EC50 by calcein for cell viability.
The subject of data set [4] is PrP^Sc in dividing ScN2a-cl3 cells. The class given is cell-based, mouse.
The nature of data set [5]: Hepatic microsomal stability, mouse. Conditions: for half-life at 1 μM: CD-1, mouse, pH 7.4.
Data set [6] is described as follows: Hepatic microsome stability, mouse. The class given is in vitro ADME. The settings on record: mouse liver microsomes. How it is done:
as §1, §2, §3, §4, §5, §6
In general terms: Liver microsomes are a subcellular fraction often used to study metabolism.

Data set [7] is described as follows: Multiple-dose (three-day) pharmacokinetic studies in FVB mice, drug in liquid diet. The class given is in vivo, mouse. Conditions: 3 days in liquid diet, 40 mg/kg dose. A digest of the protocol:
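Cohorts of three wild-type FVB mice received compound from PEG400 stock in liquid diet with cocoa for three days at oral doses of 40-210 mg/kg, estimated from ~20 mL/day intake. Plasma and brain were collected at the end and measured by LC/MS/MS; […].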

[8] abbreviates: Table 29, 2-AMT analogs tested for potency, usually n = 3 or more.

Entries after “also recorded” stand apart in the source; their conditions may differ. Read-outs that look alike come from different tables or passages of the source. A value given as a limit tells only on which side of the number the result lay.

For orientation: half-life means the time needed for the level to fall by half in the phase considered. As usually defined, the EC50 is the concentration giving half of the maximal effect. With `Cc1cccc(Nc2nc(-c3ccc(-c4ccccc4)cc3)cs2)n1` [IND24, (4-Biphenyl-4-yl-thiazol-2-yl)-(6-methyl-pyridin-2-yl)-amine], the half-life at 1 μM in data set [1] (both, human, liver microsomes) was 23.3 h; in data set [1] (human, human liver microsomes) it was above 1 h; in data set [1] (human, liver microsomes), above 1 h; in data set [2] (pH 7.4, human liver microsomes, 1 μM), above 1 h; in data set [3] (rat), above 1 h; in data set [5] (liver microsomes), above 1 h. Moreover, the half-life at 1 μM in data set [5] (mouse liver microsomes) is above 1 h; in data set [5] (female, liver microsomes), 4.83 h; in data set [5] (male, liver microsomes) it was 3.17 h; in data set [6] (pH 7.4, 1 μM), above 1 h. Moreover, the “% remaining after a 60-min incubation, Human” value in data set [1] (human liver microsomes) is on record as 105%. Further, the “metabolic stability (in words)” value in data set [2] (human liver microsomes) and in data set [6] was “stable; also recorded: excellent stability” each time. Further, in data set [2] (pooled human liver microsomes, 1 μM, 60 min, with or without CYP inhibitors), the “metabolism in HLM incubations” value is “very little metabolism”. For the same compound, the “% remaining after a 60-min incubation, Rat” value in data set [3] was found to be 90%. Moreover, the concentration for a half-maximal effect (EC50) in the data set with ScN2a-c13 cells was above 10 µM; in data set [4] (AMT analogs tested for potency) it was 1.27 µM; in data set [4] (setting [8]), 1.27 µM. The “% remaining after a 60-min incubation, Mouse” value in data set [5] (mouse liver microsomes) is on record as 89%.

As for `Cc1ccnc(Nc2nc(-c3ccncc3)cs2)c1` [IND52, (4-Methyl-pyridin-2-yl)-(4-pyridin-4-yl-thiazol-2-yl)-amine], in data set [7], the brain concentration result is listed as “no measurable brain concentrations”. Moreover, the “Hepatic Extraction Ratio Human” value in data set [1] (human) and in data set [1] (human microsomes) was 0.8 throughout. In addition, the “% remaining after a 60-min incubation, Human” value in data set [1] (human liver microsomes) stood at 30%. For the same compound, the half-life at 1 μM was 0.6 h in data set [1] (human, human liver microsomes); 0.6 h in data set [1] (human, liver microsomes); 0.267 h in data set [3] (rat); 0.1 h in data set [5] (liver microsomes); 0.1 h in data set [5] (mouse liver microsomes). The “hepatic extraction ratio (ER)” value in data set [2] (human liver microsomes) and in data set [6] was “higher” throughout. Further, the “% remaining after a 60-min incubation, Rat” value in data set [3] came to 8%. Further, the “Hepatic Extraction Ratio Rat” value in data set [3] (rat) and in data set [3] (rat microsomes) was 0.8 throughout. Also, the concentration for a half-maximal effect (EC50) is above 10 µM in the data set on ScN2a-c13 cells, 4.95 µM in data set [4] (AMT analogs tested for potency) and 4.95 µM in data set [4] (setting [8]). In addition, the “Hepatic Extraction Ratio Mouse” value in data set [5] (mouse) and in data set [5] (mouse microsomes) was 0.95 throughout. Further, the “% remaining after a 60-min incubation, Mouse” value in data set [5] (mouse liver microsomes) is listed as 0%.
